In PubChem BioAssay (NCI):
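In this assay, cells in 96-well plates receive the compound at five concentrations for 48 hours. Endpoints are linearly interpolated between the surrounding concentrations. Here, GI50 denotes the concentration required for 50% inhibition of growth. The concentration for full growth arrest is given as TGI.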

How the values were obtained:
Test in all cases: NCI-60 cell line screen, 48 h
[1] = test system: M14 melanoma
[2] = test system: T-47D breast
[3] = test system: SN12C renal
[4] = test system: HOP-62 NSCLC
[5] = test system: OVCAR-8 ovarian
[6] = test system: KM12 colon
[7] = test system: PC-3 prostate
[8] = test system: HCT-116 colon
[9] = test system: LOX IMVI melanoma
[10] = test system: CAKI-1 renal
[11] = test system: CCRF-CEM leukemia
[12] = test system: SNB-19 CNS
[13] = test system: IGROV1 ovarian
[14] = test system: NCI-H460 lung
[15] = test system: SK-OV-3 ovarian
[16] = test system: NCI-H23 lung
[17] = test system: SF-268 CNS
[18] = test system: EKVX NSCLC
[19] = test system: COLO 205 colon
[20] = test system: BT-549 breast
[21] = test system: UACC-257 melanoma
[22] = test system: K-562 leukemia
[23] = test system: SF-295 CNS
[24] = test system: SR leukemia
[25] = test system: OVCAR-5 ovarian
[26] = test system: MDA-MB-231 breast
[27] = test system: HOP-92 NSCLC
[28] = test system: MOLT-4 leukemia
[29] = test system: HCC-2998 colon
[30] = test system: SK-MEL-28 melanoma
[31] = test system: HL-60(TB) leukemia
[32] = test system: NCI/ADR-RES ovarian
[33] = test system: DU-145 prostate
[34] = test system: RPMI-8226 leukemia
[35] = test system: TK-10 renal
[36] = test system: U251 CNS
[37] = test system: SW-620 colon
[38] = test system: NCI-H226 lung
[39] = test system: A498 renal
[40] = test system: OVCAR-4 ovarian
[41] = test system: MCF7 breast
[42] = test system: HS 578T breast
[43] = test system: HT29 colon
[44] = test system: A549 NSCLC
[45] = test system: OVCAR-3 ovarian
[46] = test system: HCT-15 colon
[47] = test system: SNB-75 CNS

`COc1ccc(Nc2ccnc3cc(Cl)ccc23)cc1CN(CCCl)CCCl` gave a GI50 [1] of 2140 nM, a TGI [1] of 7920 nM and a GI50 [2] of 2270 nM. The TGI [2] was over 100000 nM, the GI50 [3] was 1240 nM and the TGI [3] was 6000 nM. The GI50 [4] was 1370 nM, the TGI [4] was 4010 nM and the GI50 [5] was 2200 nM. The TGI [5] was over 100000 nM, the GI50 [6] was 2210 nM and the TGI [6] was 9750 nM. For the same compound, the GI50 [7] was 2050 nM, the TGI [7] was over 100000 nM and the GI50 [8] was 1140 nM. The TGI [8] was 3840 nM, the GI50 [9] was 724 nM and the TGI [9] was 4390 nM. The GI50 [10] was 262 nM, the TGI [10] was 933 nM and the GI50 [11] was 664 nM. The GI50 [12] was 1500 nM, the GI50 [13] was 1310 nM and the TGI [13] was 4190 nM. For the same compound, the GI50 [14] was 532 nM, the TGI [14] was 2960 nM and the GI50 [15] was 1560 nM. It also gave a GI50 [16] of 1040 nM, a TGI [16] of 3260 nM and a GI50 [17] of 1150 nM. For the same compound, the TGI [17] was 4890 nM, the GI50 [18] was 1900 nM and the TGI [18] was over 21500 nM. It also gave a GI50 [19] of 1390 nM, a TGI [19] of 3560 nM and a GI50 [20] of 1780 nM. The TGI [20] was 13000 nM, the GI50 [21] was 1980 nM and the TGI [21] was 5960 nM. It also gave a GI50 [22] of 1530 nM, a TGI [22] of over 22700 nM and a GI50 [23] of 804 nM. The TGI [23] was 3310 nM, the GI50 [24] was 158 nM and the TGI [24] was 699 nM. The GI50 [25] was 2840 nM, the TGI [25] was 5940 nM and the GI50 [26] was 2450 nM. The TGI [26] was 15900 nM, the GI50 [27] was 1170 nM and the TGI [27] was 5530 nM. It also gave a GI50 [28] of 662 nM, a TGI [28] of 2610 nM and a GI50 [29] of 1680 nM. The TGI [29] was 4540 nM, the GI50 [30] was 3590 nM and the TGI [30] was 14900 nM. The GI50 [31] was 944 nM, the TGI [31] was 3960 nM and the GI50 [32] was 3840 nM. For the same compound, the TGI [32] was over 100000 nM, the GI50 [33] was 901 nM and the TGI [33] was 3540 nM. For the same compound, the GI50 [34] was 1150 nM, the TGI [34] was 4850 nM and the GI50 [35] was 2020 nM. For the same compound, the TGI [35] was over 20700 nM, the GI50 [36] was 1790 nM and the TGI [36] was over 100000 nM. It also gave a GI50 [37] of 1590 nM, a TGI [37] of 7380 nM and a GI50 [38] of 1630 nM. It also gave a TGI [38] of 4170 nM, a GI50 [39] of 2120 nM and a TGI [39] of 6470 nM. The GI50 [40] was 1740 nM, the TGI [40] was 5190 nM and the GI50 [41] was 633 nM. For the same compound, the TGI [41] was 6420 nM, the GI50 [42] was 3140 nM and the TGI [42] was over 100000 nM. It also gave a GI50 [43] of 1620 nM, a TGI [43] of 6420 nM and a GI50 [44] of 1690 nM. It also gave a TGI [44] of over 28500 nM, a GI50 [45] of 1950 nM and a TGI [45] of 6040 nM. The GI50 [46] was 1850 nM and the TGI [46] was 6440 nM.
`O=C(/C=C(/C=C/c1csc2ccccc12)OB(F)F)/C=C/c1csc2ccccc12` was tested, and the GI50 [4] was over 50000 nM, the TGI [4] was over 50000 nM and the GI50 [11] was 244 nM. For the same compound, the TGI [11] was over 50000 nM, the GI50 [12] was 3620 nM and the TGI [12] was over 50000 nM. For the same compound, the GI50 [14] was over 50000 nM, the TGI [14] was over 50000 nM and the GI50 [15] was over 50000 nM. It also gave a TGI [15] of over 50000 nM, a GI50 [23] of over 26200 nM and a TGI [23] of over 50000 nM. For the same compound, the GI50 [24] was 230 nM, the TGI [24] was over 50000 nM and the GI50 [47] was 2790 nM. It also gave a TGI [47] of over 50000 nM, a GI50 [38] of over 50000 nM and a TGI [38] of over 50000 nM. The GI50 [39] was over 50000 nM, the TGI [39] was over 50000 nM and the GI50 [41] was 1060 nM. For the same compound, the TGI [41] was over 50000 nM, the GI50 [42] was 2060 nM and the TGI [42] was over 50000 nM. For the same compound, the GI50 [44] was over 50000 nM and the TGI [44] was over 50000 nM.
